What was measured:
Assay type in all cases: physicochemical
[1] = Stability analysis of raw API by titration method (BP); details: after 3 Months
Description: (§1) In both studies the * Initial denotes the results of the samples tested at the time of receipt of the API from the supplier.

[2] = Stability analysis of raw API by stability indicating HPLC method; details: for Assay (%) HPLC / Percentage Drop (%) HPLC / loss in 3 Months: raw API; for Assay (%) HPLC / Percentage Drop (%) HPLC: after 3 Months
Description: as §1

[3] = Assay (%) test of APIs in cream, stability study, HPLC method
Experimental: The stability of the product is confirmed by the stability studies performed for 3/6 months as per ICH guidelines.
APIs-stability experiments were carried out (see tables 3-20) using several products that are representative of the present invention. Tests were carried out to observe (or measure as appropriate) the physical appearance of the product, the pH value and assay of the APIs over a period of time. […] Betamethasone Valerate—0.12% (w/w) • ii. Fluticasone Propionate—0.05% (w/w) • iii. Mometasone Furoate—0.1% (w/w) • iv. Dexamethasone Acetate—0.1% (w/w) • v. Hydrocortisone Acetate—1.0% (w/w) • vi. Clobetasol Propionate—0.05% (w/w) • vii. Beclomethasone Dipropionate—0.025% (w/w) • viii. Betamethasone Dipropionate—0.05% (w/w) wherein all percentages are with respect to the final formulation.
The product used for the Stability Studies tests contained approximately 10% extra APIs (overages).

SMILES: CC(=O)O[C@H]1C[C@@]2(C)[C@@H](C[C@@H](O)[C@H]3[C@@]4(C)CC[C@@H](O)[C@@H](C)[C@@H]4CC[C@@]32C)/C1=C(\CCC=C(C)C)C(=O)O [Fusidic acid]
- Assay (%) Titration ([1]; 45° C. (C) closed Petri dish): 99.10%
- Percentage Drop (%) Titration ([1]; 45° C. (C) closed Petri dish): 1.50%
- Assay (%) Titration ([1]; 45° C. (O) open Petri dish): 98.52%
- Percentage Drop (%) Titration ([1]; 45° C. (O) open Petri dish): 2.08%
- Assay (%) Titration ([1]; RT (C) closed Petri dish): 99.02%
- Percentage Drop (%) Titration ([1]; RT (C) closed Petri dish): 1.58%
- Assay (%) Titration ([1]; RT (O) open Petri dish): 99.21%
- Percentage Drop (%) Titration ([1]; RT (O) open Petri dish): 1.39%
- Initial (%) ([2]; raw API tested at the time of receipt from the supplier, method not stated): 100.6%
- Assay (%) HPLC ([2]; 45° C. (C) closed Petri dish): 92.12%
- Percentage Drop (%) HPLC ([2]; 45° C. (C) closed Petri dish): 8.48%
- Assay (%) HPLC ([2]; 45° C. (O) open Petri dish): 89.52%
- Percentage Drop (%) HPLC ([2]; 45° C. (O) open Petri dish): 11.08%
- loss in 3 Months ([2]; 45° C. (open condition)): about 11%
- Assay (%) HPLC ([2]; RT (C) closed Petri dish): 94.37%
- Percentage Drop (%) HPLC ([2]; RT (C) closed Petri dish): 6.23%
- Assay (%) HPLC ([2]; RT (O) open Petri dish): 92.93%
- Percentage Drop (%) HPLC ([2]; RT (O) open Petri dish): 7.67%
- loss in 3 Months ([2]; room temperature (open condition)): about 7.7%
- stability as an API, Sodium Fusidate compared with Fusidic acid ([2]; raw APIs, Tables 1 and 2): deteriorates more rapidly than Sodium Fusidate
- Assay (%) ([3]; in cream Batch No. HAS-01, 25° C. 60% RH, 1st Month): 108.50%
- Assay (%) ([3]; in cream Batch No. HAS-01, 25° C. 60% RH, 2nd Month): 108.44%
- Assay (%) ([3]; in cream Batch No. HAS-01, 25° C. 60% RH, 3rd Month): 108.36%
- Assay (%) ([3]; in cream Batch No. HAS-01, 30° C. 65% RH, 1st Month): 108.51%
- Assay (%) ([3]; in cream Batch No. HAS-01, 30° C. 65% RH, 2nd Month): 108.42%
- Assay (%) ([3]; in cream Batch No. HAS-01, 30° C. 65% RH, 3rd Month): 108.32%
- Assay (%) ([3]; in cream Batch No. HAS-01, 40° C. 75% RH, 1st Month): 108.48%
- Assay (%) ([3]; in cream Batch No. HAS-01, 40° C. 75% RH, 2nd Month): 108.34%
- Assay (%) ([3]; in cream Batch No. HAS-01, 40° C. 75% RH, 3rd Month): 108.20%
- Assay (%) ([3]; in cream Batch No. HAS-01, Freezthaw, 1st Month): 108.31%
- Assay (%) ([3]; in cream Batch No. HAS-01, Initial): 108.52%
- Assay (%) ([3]; in cream Batch No. HAS-01, Temperature cycling, 1st Month): 108.40%
- Assay (%) ([3]; in cream Batch No. SBV-01, 25° C. 60% RH, 1st Month): 108.54%
- Assay (%) ([3]; in cream Batch No. SBV-01, 25° C. 60% RH, 2nd Month): 108.42%
- Assay (%) ([3]; in cream Batch No. SBV-01, 25° C. 60% RH, 3rd Month): 108.40%
- Assay (%) ([3]; in cream Batch No. SBV-01, 30° C. 65% RH, 1st Month): 108.53%
- Assay (%) ([3]; in cream Batch No. SBV-01, 30° C. 65% RH, 2nd Month): 108.41%
- Assay (%) ([3]; in cream Batch No. SBV-01, 30° C. 65% RH, 3rd Month): 108.36%
- Assay (%) ([3]; in cream Batch No. SBV-01, 40° C. 75% RH, 1st Month): 108.46%
- Assay (%) ([3]; in cream Batch No. SBV-01, 40° C. 75% RH, 2nd Month): 108.16%
- Assay (%) ([3]; in cream Batch No. SBV-01, 40° C. 75% RH, 3rd Month): 108.11%
- Assay (%) ([3]; in cream Batch No. SBV-01, Freezthaw, 1st Month): 108.01%
- Assay (%) ([3]; in cream Batch No. SBV-01, Initial): 108.57%
- Assay (%) ([3]; in cream Batch No. SBV-01, Temperature cycling, 1st Month): 107.53%
- Assay (%) ([3]; in cream Batch No. SFB-01, 25° C. 60% RH, 1st Month): 108.22%
- Assay (%) ([3]; in cream Batch No. SFB-01, 25° C. 60% RH, 2nd Month): 108.18%
- Assay (%) ([3]; in cream Batch No. SFB-01, 25° C. 60% RH, 3rd Month): 108.15%
- Assay (%) ([3]; in cream Batch No. SFB-01, 30° C. 65% RH, 1st Month): 108.25%
- Assay (%) ([3]; in cream Batch No. SFB-01, 30° C. 65% RH, 2nd Month): 108.22%
- Assay (%) ([3]; in cream Batch No. SFB-01, 30° C. 65% RH, 3rd Month): 108.18%
- Assay (%) ([3]; in cream Batch No. SFB-01, 40° C. 75% RH, 1st Month): 108.25%
- Assay (%) ([3]; in cream Batch No. SFB-01, 40° C. 75% RH, 2nd Month): 108.20%
- Assay (%) ([3]; in cream Batch No. SFB-01, 40° C. 75% RH, 3rd Month): 108.12%
- Assay (%) ([3]; in cream Batch No. SFB-01, Freezthaw, 1st Month): 108.11%
- Assay (%) ([3]; in cream Batch No. SFB-01, Initial): 108.28%
- Assay (%) ([3]; in cream Batch No. SFB-01, Temperature cycling, 1st Month): 108.23%
